Results published in ChEMBL document CHEMBL4725367, “Novel anticancer Hsp90 inhibitor disubstituted pyrazolyl 2-aminopyrimidine compound 7t induces cell cycle arrest and apoptosis via mitochondrial pathway in MCF-7 cells” (Bioorg Med Chem Lett, 2020).

Experiments:
[1] = target: T1, Heat shock protein HSP90 (Homo sapiens) (UniProt P07900+P08238); assay: Inhibition of HSP90 in human MCF7 cells assessed as cell cycle arrest by measuring accumulation at S phase at 2.5 uM measured after 24 hrs by RNaseA/propidium iodide staining based flow cytometric analysis (reference value: 7.08 %); parameters: scale not given: the % may be the effect or the level left
[2] = target: T1, Heat shock protein HSP90 (Homo sapiens); assay: Inhibition of HSP90 in human MCF7 cells assessed as induction of apoptosis by measuring necrotic cells at 10 uM measured after 24 hrs by annexinV-FITC/propidium iodide staining based flow cytometry (reference value: 0.01 %); type: cell-based; parameters: scale not given: the % may be the effect or the level left
[3] = target: T1, Heat shock protein HSP90 (Homo sapiens); assay: Inhibition of HSP90 in human MCF7 cells assessed as induction of apoptosis by measuring necrotic cells at 2.5 uM measured after 24 hrs by annexinV-FITC/propidium iodide staining based flow cytometry (reference value: 0.01 %); type: cell-based; parameters: scale not given: the % may be the effect or the level left
[4] = target: T1, Heat shock protein HSP90 (Homo sapiens); assay: Inhibition of HSP90 in human MCF7 cells assessed as cell cycle arrest by measuring accumulation at G2/M phase at 10 uM measured after 24 hrs by RNaseA/propidium iodide staining based flow cytometric analysis (reference value: 25.08 %); parameters: scale not given: the % may be the effect or the level left
[5] = target: T1, Heat shock protein HSP90 (Homo sapiens); assay: Inhibition of HSP90 in human MCF7 cells assessed as induction of morphological changes by measuring membrane blebbing at 2.5 to 10 uM by acridine orange/ethidium bromide staining based fluorescence microscopy analysis; type: cell-based; settings: dose microM 2.5-10
[6] = target: T1, Heat shock protein HSP90 (Homo sapiens); assay: Inhibition of HSP90 in human MCF7 cells assessed as induction of apoptosis by measuring live cells at 5 uM measured after 24 hrs by annexinV-FITC/propidium iodide staining based flow cytometry (reference value: 90.77 %); type: cell-based; parameters: scale not given: the % may be the effect or the level left
[7] = target: T1, Heat shock protein HSP90 (Homo sapiens); assay: Inhibition of HSP90 in human MCF7 cells assessed as induction of mitochondrial membrane potential loss by measuring cell population with intact mitochondrial membrane potential at 5 uM after 24 hrs by JC1 staining-based flow cytometry analysis (reference value: 92.39 %); parameters: scale not given: the % may be the effect or the level left
[8] = target: T1, Heat shock protein HSP90 (Homo sapiens); assay: Inhibition of HSP90 in human MCF7 cells assessed as induction of mitochondrial membrane potential loss by measuring cell population with mitochondrial membrane potential collapse at 5 uM after 24 hrs by JC1 staining-based flow cytometry analysis (reference value: 6.53 %); parameters: scale not given: the % may be the effect or the level left
[9] = target: T1, Heat shock protein HSP90 (Homo sapiens); assay: Inhibition of HSP90 in human MCF7 cells assessed as increase in ROS generation by measuring fluorescence intensity at 2.5 to 10 uM after 24 hrs by DCFDA staining based flow cytometry; type: cell-based; settings: dose microM 2.5-10, time 24.0 hrs
[10] = target: T1, Heat shock protein HSP90 (Homo sapiens); assay: Inhibition of HSP90 in human MCF7 cells assessed as cell cycle arrest by measuring accumulation at S phase at 5 uM measured after 24 hrs by RNaseA/propidium iodide staining based flow cytometric analysis (reference value: 7.08 %); parameters: scale not given: the % may be the effect or the level left
[11] = target: T1, Heat shock protein HSP90 (Homo sapiens); assay: Inhibition of HSP90 in human MCF7 cells assessed as cell cycle arrest by measuring accumulation at S phase at 10 uM measured after 24 hrs by RNaseA/propidium iodide staining based flow cytometric analysis (reference value: 7.08 %); parameters: scale not given: the % may be the effect or the level left
[12] = target: T1, Heat shock protein HSP90 (Homo sapiens); assay: Inhibition of HSP90 in human MCF7 cells assessed as induction of mitochondrial membrane potential loss by measuring cell population with intact mitochondrial membrane potential at 2.5 uM after 24 hrs by JC1 staining-based flow cytometry analysis (reference value: 92.39 %); parameters: scale not given: the % may be the effect or the level left
[13] = target: T1, Heat shock protein HSP90 (Homo sapiens); assay: Inhibition of HSP90 in human MCF7 cells assessed as induction of apoptosis by measuring late apototic cells at 5 uM measured after 24 hrs by annexinV-FITC/propidium iodide staining based flow cytometry (reference value: 7.91 %); type: cell-based; parameters: scale not given: the % may be the effect or the level left
[14] = target: T1, Heat shock protein HSP90 (Homo sapiens); assay: Inhibition of HSP90 in human MCF7 cells assessed as cell cycle arrest by measuring accumulation at Sub-G1 phase at 10 uM measured after 24 hrs by RNaseA/propidium iodide staining based flow cytometric analysis (reference value: 3.75 %); parameters: scale not given: the % may be the effect or the level left
[15] = target: T1, Heat shock protein HSP90 (Homo sapiens); assay: Inhibition of HSP90 in human MCF7 cells assessed as cell cycle arrest by measuring accumulation at G2/M phase at 2.5 uM measured after 24 hrs by RNaseA/propidium iodide staining based flow cytometric analysis (reference value: 25.08 %); parameters: scale not given: the % may be the effect or the level left
[16] = target: T1, Heat shock protein HSP90 (Homo sapiens); assay: Inhibition of HSP90 in human MCF7 cells assessed as induction of apoptosis by measuring early apototic cells at 2.5 uM measured after 24 hrs by annexinV-FITC/propidium iodide staining based flow cytometry (reference value: 1.31 %); type: cell-based; parameters: scale not given: the % may be the effect or the level left
[17] = target: T1, Heat shock protein HSP90 (Homo sapiens); assay: Inhibition of HSP90 in human MCF7 cells assessed as induction of nuclear morphological changes by measuring horse shoe shaped nuclei formation at 2.5 to 10 uM by DAPI staining based fluorescence microscopy analysis; type: cell-based; settings: dose microM 2.5-10
[18] = target: T1, Heat shock protein HSP90 (Homo sapiens); assay: Inhibition of HSP90 in human MCF7 cells assessed as induction of nuclear morphological changes by measuring nuclear fragmentation at 2.5 to 10 uM by DAPI staining based fluorescence microscopy analysis; type: cell-based; settings: dose microM 2.5-10
[19] = target: T1, Heat shock protein HSP90 (Homo sapiens); assay: Inhibition of HSP90 in human MCF7 cells assessed as cell cycle arrest by measuring accumulation at G0/G1 phase at 2.5 uM measured after 24 hrs by RNaseA/propidium iodide staining based flow cytometric analysis (reference value: 39.10 %); parameters: scale not given: the % may be the effect or the level left
[20] = target: T1, Heat shock protein HSP90 (Homo sapiens); assay: Inhibition of HSP90 in human MCF7 cells assessed as induction of apoptosis by measuring live cells at 2.5 uM measured after 24 hrs by annexinV-FITC/propidium iodide staining based flow cytometry (reference value: 90.77 %); type: cell-based; parameters: scale not given: the % may be the effect or the level left

In the case of `Nc1nc(-c2ccc(Br)cc2)cc(-c2cn(-c3ccc(Cl)cc3)nc2-c2ccc([N+](=O)[O-])cc2)n1`, the Activity [1] is reported as 7.74%, the Activity [2] is reported as 0.12% and the Activity [3] is reported as 0.07%. For the same compound, the Activity [4] was 20.1%, the inhibition [5] was “Dose-dependent effect” and the Activity [6] was 77.4%. For the same compound, the Activity [7] was 75.3%, the Activity [8] was 21.8% and the inhibition [9] was “Dose-dependent effect”. The Activity [10] was 5.15%, the Activity [11] was 4.13% and the Activity [12] was 85.4%. For the same compound, the Activity [13] was 18.6%, the Activity [14] was 23.7% and the Activity [15] was 27.2%. The Activity [16] was 1.94%, the inhibition [17] was “Dose-dependent effect” and the inhibition [18] was “Dose-dependent effect”. For the same compound, the Activity [19] was 35.2% and the Activity [20] was 87.9%.
